According to patent US9657033B2, “Tetrahydronaphthyridine and related bicyclic compounds for inhibition of RORγ activity and the treatment of disease” (Merck Sharp & Dohme Corp., priority 2012, dated 2017):
Counter-ions that a name gives are not always drawn.

Biological target: RORγ-LBD (Homo sapiens (Human), UniProt P51449)
Assay: RORγ-Ligand Binding Domain (LBD) TR-FRET Assay Protocol II
Format: biochemical
Conditions: purified RORγ-LBD, SRC1 peptide, overnight at 4° C.
Description: Part II—Procedures for RORγ-Ligand Binding Domain TR-FRET Assay Protocol II
HIS-tagged RORγ-LBD protein was expressed in SF9 cells using a baculovirus expression system. The RORγ-LBD protein was purified by […]. Separately, SF9 cells not expressing recombinant protein were lysed in TBS buffer (25 mM Tris, pH 8.0, 150 mM NaCl) under sonication. The lysate was added to the purified RORγ-LBD in a volume equivalent of 0.75 μL lysate (from 30,000 SF9 cells) per 75 femtomol of RORγ-LBD protein. The resulting mixture was diluted in assay buffer (50 mM Tris pH 7.0, 50 mM KCl, 1 mM EDTA, 0.1 mM DTT, 0.01% BSA) to obtain RORγ-LBD protein at a final concentration of 3 nM.
Compounds to be tested were injected to the assay plate using Acoustic Droplet Ejection technology by Echo 550 liquid handler (Labcyte, Calif.).
A stock of biotinylated-LXXLL peptide from coactivator SRC1 (Biotin-[…]) was prepared in assay buffer and added to each well (100 nM final concentration). A solution of Europium tagged anti-HIS antibody (1.25 nM final concentration) and APC-conjugated streptavidin (8 nM final concentration) were also added to each well.
The final assay mixture was incubated overnight at 4° C., and the fluorescence signal was measured on an Envision plate reader: (Excitation filter=340 nm; APC emission=665 nm; Europium emission=615 nm; dichroic mirror=D400/D630; delay time=100 μs, integration time=200 μs). The EC50 value for test compounds was calculated from the quotient of the fluorescence signal at 665 nm divided by the fluorescence signal at 615 nm

Sequence of RORγ-LBD (P51449 269-508): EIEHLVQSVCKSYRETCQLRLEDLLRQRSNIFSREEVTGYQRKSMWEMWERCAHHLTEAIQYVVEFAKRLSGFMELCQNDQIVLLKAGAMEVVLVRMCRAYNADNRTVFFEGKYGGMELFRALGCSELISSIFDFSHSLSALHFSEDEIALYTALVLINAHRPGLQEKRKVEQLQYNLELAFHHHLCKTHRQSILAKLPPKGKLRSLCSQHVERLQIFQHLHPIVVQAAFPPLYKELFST

SMILES | EC50 [nM]
CC(C)(C)OC(=O)N[C@@H]1Cc2ncc(NC(=O)c3c(Cl)cccc3Cl)cc2N(S(=O)(=O)c2cccc(Cl)c2)C1 [Compound 45] | 6
CC(C)OC(=O)N[C@H]1Cc2ncc(NC(=O)c3c(Cl)cccc3Cl)cc2N(S(=O)(=O)c2cccc(C(F)(F)F)c2)C1 [Compound 47] | 36
Cc1nn(C(F)F)cc1S(=O)(=O)N1C[C@@H](NC(=O)C(F)(F)F)Cc2ncc(NC(=O)c3c(F)cccc3Cl)cc21 [Compound 49] | 12
Cc1cccc(S(=O)(=O)N2C[C@H](C)Oc3ncc(NC(=O)C(C)c4ccc(Cl)cc4)cc32)c1 (stereo partly shown) [Compound 34] | 108
Cc1cccc(S(=O)(=O)N2C[C@H](C)Oc3ncc(NC(=O)C(C)c4ccc(F)cc4)cc32)c1 (stereo partly shown) [Compound 32] | 97
Cc1cccc(S(=O)(=O)N2C[C@H](N)Cc3ncc(NC(=O)c4c(Cl)cccc4Cl)cc32)c1 [Compound 40, (R)-N-(7-amino-5-(m-tolylsulfonyl)-5,6,7,8-tetrahydro-1,5-naphthyridin-3-yl)-2,6-dichlorobenzamide trifluoroacetic acid salt] | 18
CC(C)(C)OC(=O)N[C@H]1Cc2ncc(NC(=O)c3c(Cl)cccc3Cl)cc2N(S(=O)(=O)c2cccc(C(F)(F)F)c2)C1 [Compound 54] | 17

Results, then the compound that gave them:

EC50 [nM] | SMILES
10 | CN1CC(=O)N(C[C@H]2CN(S(=O)(=O)c3cccc(Cl)c3)c3cc(NC(=O)c4c(Cl)cccc4Cl)cnc3O2)C1=O [Compound 86, (S)-2,6-dichloro-N-(1-((3-chlorophenyl)sulfonyl)-3-((3-methyl-2,5-dioxoimidazolidin-1-yl)methyl)-2,3-dihydro-1H-pyrido[2,3-b][1,4]oxazin-7-yl)benzamide]
26 | O=C(Nc1ccc2c(c1)N(S(=O)(=O)c1cccc(Cl)c1)C[C@H](CN1CCCC1=O)O2)c1c(Cl)cccc1Cl [Compound 80, 2,6-dichloro-N-[(S)-4-(3-chloro-benzenesulfonyl)-2-(2-oxopyrrolidin-1-ylmethyl)-3,4-dihydro-2H-benzo[1,4]oxazin-6-yl]-benzamide]
168 | Cc1nn(C(F)F)cc1S(=O)(=O)N1C[C@@H](CN2CC[C@@H](O)C2)Cc2ncc(NC(=O)[C@@H](C)C(C)(C)C)cc21 [Compound 96, (S)-N-((R)-5-((1-(difluoromethyl)-3-methyl-1H-pyrazol-4-yl)sulfonyl)-7-(((R)-3-hydroxypyrrolidin-1-yl)methyl)-5,6,7,8-tetrahydro-1,5-naphthyridin-3-yl)-2,3,3-trimethylbutanamide]
52 | CN1CCN(C[C@H]2CN(S(=O)(=O)c3cccc(Cl)c3)c3cc(NC(=O)c4c(Cl)cccc4Cl)cnc3O2)CC1=O [Compound 87, (S)-2,6-dichloro-N-(1-((3-chlorophenyl)sulfonyl)-3-((4-methyl-3-oxopiperazin-1-yl)methyl)-2,3-dihydro-1H-pyrido[2,3-b][1,4]oxazin-7-yl)benzamide]
25 | CC(=O)NC1Cc2ncc(NC(=O)c3c(Cl)cccc3Cl)cc2N(S(=O)(=O)c2cccc(C3CC3)c2)C1 (stereo not shown) [Compound 68]
25 | CCN(CC)[C@H]1Cc2ncc(NC(=O)c3c(Cl)cccc3Cl)cc2N(S(=O)(=O)c2cccc(C)c2)C1 [Compound 78]
20 | Cc1cccc(S(=O)(=O)N2CC(CO)Cc3ncc(NC(=O)c4c(Cl)cccc4Cl)cc32)c1 (stereo not shown) [Compound 94, 2,6-dichloro-N-(7-(hydroxymethyl)-5-(m-tolylsulfonyl)-5,6,7,8-tetrahydro-1,5-naphthyridin-3-yl)benzamide]
291 | CC(=O)NC1COc2ncc(NC(=O)c3c(Cl)cccc3Cl)cc2N(S(=O)(=O)c2cccc(C)c2)C1 (stereo not shown) [Compound 75, N-[7-acetylamino-5-(toluene-3-sulfonyl)-5,6,7,8-tetrahydro-9-oxa-1,5-diaza-benzocyclohepten-3-yl]-2,6-dichloro-benzamide]
24 | N[C@H]1Cc2ncc(NC(=O)c3c(Cl)cccc3Cl)cc2N(S(=O)(=O)c2cccc(C(F)(F)F)c2)C1 [Compound 57]
